Publication PMC4206749 (Toxicological Research, 2014)
Marks after values point to notes of the source that are not given here.

Legend:
[1] = test system: Salmonella typhimurium strain TA98; test: Bacterial reverse mutation assay; type: cell-based
[2] = test system: Salmonella typhimurium strain TA1535; test: Bacterial reverse mutation assay; type: cell-based
[3] = test system: Salmonella typhimurium strain TA100; test: Bacterial reverse mutation assay; type: cell-based
[4] = test system: Salmonella typhimurium strain TA1537; test: Bacterial reverse mutation assay; type: cell-based
[5] = test system: Escherichia coli strain (WP2 uvrA); test: Bacterial reverse mutation assay; type: cell-based; conditions: E. coli
[6] = test system: L5178Y Tk^+/− mouse lymphoma cells; test: In vitro comet assay; type: cell-based; conditions: for % DNA in tail / Olive moment / Tail length / Tail moment: 4 hr; for Comet parameters compared to vehicle: p < 0.05
[7] = test system: CHL cells (Chinese hamster lung fibroblast cell line); test: In vitro chromosomal aberration assay; type: cell-based
[8] = test system: S. typhimurium strain TA100 and TA98, E. coli strain WP2uvrA; conditions: presence and absence of the S9 mix, 0.02~5000 μg per plate; cited from earlier work
[9] = positive control 35 μg/ml with S9 mix
[10] = positive control 10 μg/ml, with metabolic activation, short term treatment
[11] = positive control 15 μg/ml without S9 mix

Nc1ccc2cc3ccccc3cc2c1 [2-AA, 2-aminoanthracene, reference compound]
Number of reverse mutants/plate (Mean ± SD) ([1]; TA98, with S9 activation, positive control 0.5 μg/plate): 232 ± 9 reverse mutants/plate | Number of reverse mutants/plate (Mean ± SD) ([2]; TA1535, with S9 activation, positive control 2.0 μg/plate): 156 ± 6 reverse mutants/plate | Number of reverse mutants/plate (Mean ± SD) ([3]; TA100, with S9 activation, positive control 1.0 μg/plate): 598 ± 20 reverse mutants/plate | Number of reverse mutants/plate (Mean ± SD) ([4]; TA1537, with S9 activation, positive control 2.0 μg/plate): 118 ± 16 reverse mutants/plate | Number of reverse mutants/plate (Mean ± SD) ([5]; with S9 activation, positive control 10 μg/plate): 428 ± 21 reverse mutants/plate

Nc1c2ccccc2nc2ccccc12 [9-AA, 9-aminoacridine, reference compound]
Number of reverse mutants/plate (Mean ± SD) ([4]; TA1537, without S9 activation, positive control 80 μg/plate): 151 ± 11 reverse mutants/plate

NC(=O)C(=Cc1ccc([N+](=O)[O-])o1)c1ccco1 [AF-2, 2-(2-furyl)-3-(5-nitro-2-furyl) acrylamide, reference compound]
Number of reverse mutants/plate (Mean ± SD) ([1]; TA98, without S9 activation, positive control 0.1 μg/plate): 278 ± 20 reverse mutants/plate | Number of reverse mutants/plate (Mean ± SD) ([3]; TA100, without S9 activation, positive control 0.01 μg/plate): 425 ± 23 reverse mutants/plate | Number of reverse mutants/plate (Mean ± SD) ([5]; without S9 activation, positive control 0.01 μg/plate): 334 ± 23 reverse mutants/plate

c1ccc2c(c1)cc1ccc3cccc4ccc2c1c34 [BaP, benzo(A)pryene, reference compound]
% DNA in tail [6, 9]: 49.14 ± 3.29 % | Olive moment [6, 9]: 13.74 ± 1.97 μm | Tail length [6, 9]: 80.29 ± 6.24 μm | Tail moment [6, 9]: 42.15 ± 3.98 μm | Comet parameters compared to vehicle ([6]; positive control with S9 mix): increased significantly

O=P1(N(CCCl)CCCl)NCCCO1 (stereo not shown) [CPA, cyclophosphamide, reference compound]
Total frequency (+) Gap [7, 10]: 132** % | Total frequency (−) Gap [7, 10]: 116** % | Frequency of cells with chromosomal aberration ([7]; positive control, treatment with metabolic activation): > 10%

CO[C@@]12[C@H](COC(N)=O)C3=C(C(=O)C(C)=C(N)C3=O)N1C[C@@H]1N[C@@H]12 [MMC, mitomycin C, reference compound]
Gap ([7]; positive control 0.5 μg/ml, continuous treatment, 200 cells): 8

COS(C)(=O)=O [MMS, methyl methansulfonate, reference compound]
% DNA in tail [6, 11]: 51.29 ± 4.26 % | Olive moment [6, 11]: 14.68 ± 1.01 μm | Tail length [6, 11]: 97.21 ± 6.75 μm | Tail moment [6, 11]: 58.13 ± 6.12 μm | Comet parameters compared to vehicle ([6]; positive control without S9 mix): increased significantly

[N-]=[N+]=[N-].[Na+] [NaN3, sodium azide, reference compound]
Number of reverse mutants/plate (Mean ± SD) ([2]; TA1535, without S9 activation, positive control 0.5 μg/plate): 151 ± 17 reverse mutants/plate

Oc1ccc(/C=C/c2cc(O)cc(O)c2)cc1 [Resveratrol]
Bacterial reverse mutation assay result [8]: negative
